From PMC3237348, “Chemical Genomics Profiling of Environmental Chemical Modulation of Human Nuclear Receptors” (Environmental Health Perspectives, 2011)
One block for each compound: values may come before it.

How the values were obtained:
ERα = target: T1, ERα (Homo sapiens, UniProt P03372); experiment: GAL-LBD beta-lactamase reporter qHTS, HEK […], […] nm ratio; format: cell-based
T1 construct: gene ESR1; GeneBLAzer bla HEK 293T reporter line (Invitrogen)
T1 sequence (P03372 311-547 limits assumed): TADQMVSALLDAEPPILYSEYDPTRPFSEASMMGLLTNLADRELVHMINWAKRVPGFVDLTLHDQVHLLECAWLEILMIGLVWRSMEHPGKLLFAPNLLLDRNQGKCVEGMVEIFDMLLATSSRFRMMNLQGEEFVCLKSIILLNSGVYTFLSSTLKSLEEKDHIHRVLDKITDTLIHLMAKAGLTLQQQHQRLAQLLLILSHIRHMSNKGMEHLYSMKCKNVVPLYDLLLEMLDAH

PPARδ [1] = target: T2, PPARδ (Homo sapiens, UniProt Q03181); experiment: as above; format: cell-based
T2 construct: gene PPARD; GeneBLAzer bla HEK 293T reporter line (Invitrogen)
T2 sequence (Q03181 139-441 limits assumed): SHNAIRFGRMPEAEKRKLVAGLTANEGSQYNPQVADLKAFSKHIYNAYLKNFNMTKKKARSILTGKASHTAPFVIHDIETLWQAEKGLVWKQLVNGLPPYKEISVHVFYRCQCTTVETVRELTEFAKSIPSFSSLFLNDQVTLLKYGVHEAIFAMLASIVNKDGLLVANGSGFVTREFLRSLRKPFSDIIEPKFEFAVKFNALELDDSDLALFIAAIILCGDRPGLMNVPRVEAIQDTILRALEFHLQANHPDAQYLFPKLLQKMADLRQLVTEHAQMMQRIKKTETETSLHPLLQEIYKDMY

RXRα = target: T3, RXRα (Homo sapiens, UniProt P19793); experiment: as above; format: cell-based
T3 construct: gene RXRA; GeneBLAzer bla HEK 293T reporter line (Invitrogen)
T3 sequence (P19793 225-462 limits assumed): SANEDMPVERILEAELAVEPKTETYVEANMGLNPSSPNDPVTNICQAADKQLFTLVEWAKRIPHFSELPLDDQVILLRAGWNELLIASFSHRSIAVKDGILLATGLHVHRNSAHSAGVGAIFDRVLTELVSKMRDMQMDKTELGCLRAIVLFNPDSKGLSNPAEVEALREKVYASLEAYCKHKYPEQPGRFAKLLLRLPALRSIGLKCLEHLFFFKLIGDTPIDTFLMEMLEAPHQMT

PPARγ [2] = target: T4, PPARγ (Homo sapiens, UniProt P37231); experiment: as above; format: cell-based
T4 construct: gene PPARG; GeneBLAzer bla HEK 293T reporter line (Invitrogen)
T4 sequence (P37231 238-505 limits assumed): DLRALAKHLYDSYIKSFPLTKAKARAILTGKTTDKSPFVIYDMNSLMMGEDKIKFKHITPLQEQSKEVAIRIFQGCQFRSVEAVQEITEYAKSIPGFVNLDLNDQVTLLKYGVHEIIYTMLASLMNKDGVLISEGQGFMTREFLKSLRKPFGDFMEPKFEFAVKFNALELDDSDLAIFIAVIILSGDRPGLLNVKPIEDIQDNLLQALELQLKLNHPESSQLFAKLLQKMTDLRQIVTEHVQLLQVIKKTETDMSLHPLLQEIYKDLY

LXRβ = target: T5, LXRβ (Homo sapiens, UniProt P55055); experiment: as above; format: cell-based; conditions: agonist mode; […]-18 h at […] °C; unreliable
T5 construct: gene NR1H2; GeneBLAzer bla HEK 293T reporter line (Invitrogen)
T5 sequence (P55055 222-460 limits assumed): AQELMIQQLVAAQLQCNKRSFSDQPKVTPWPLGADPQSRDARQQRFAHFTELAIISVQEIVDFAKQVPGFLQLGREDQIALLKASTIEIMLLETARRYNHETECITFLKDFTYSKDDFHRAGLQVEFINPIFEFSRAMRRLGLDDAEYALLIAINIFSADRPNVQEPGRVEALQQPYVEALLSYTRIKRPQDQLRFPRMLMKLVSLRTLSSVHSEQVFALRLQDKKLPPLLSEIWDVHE

PPARγ [3] = target: T4, PPARγ; experiment: as above; format: cell-based; remark: listed apart in the source
PPARγ [4] = target: T4, PPARγ; experiment: cell-based; parameters: species or system HEK 293T; GeneBLAzer GAL4-LBD beta-lactamase reporter, antagonist mode with added agonist, 460/530 nm FRET ratio; conditions: with rosiglitazone 0.05 uM; antagonist mode, known agonist added; read-out: Control Titration EC50/IC50 (µM), antagonist mode
Text: (§1) β-Lactamase reporter gene assay and qHTS. […] All cell culture reagents were obtained from Invitrogen.

PPARδ [5] = target: T2, PPARδ; experiment: cell-based; parameters: species or system HEK 293T; GeneBLAzer GAL4-LBD beta-lactamase reporter, antagonist mode with added agonist, 460/530 nm FRET ratio; conditions: with L165041 0.5 uM; antagonist mode, known agonist added; read-out: Control Titration EC50/IC50 (µM), antagonist mode
Text: as §1

GR = target: T6, GR (Homo sapiens, UniProt P04150); experiment: GAL-LBD beta-lactamase reporter qHTS, HEK […], […] nm ratio; format: cell-based
T6 construct: gene NR3C1; GeneBLAzer bla HEK 293T reporter line (Invitrogen)
T6 sequence (P04150 521-777 limits assumed): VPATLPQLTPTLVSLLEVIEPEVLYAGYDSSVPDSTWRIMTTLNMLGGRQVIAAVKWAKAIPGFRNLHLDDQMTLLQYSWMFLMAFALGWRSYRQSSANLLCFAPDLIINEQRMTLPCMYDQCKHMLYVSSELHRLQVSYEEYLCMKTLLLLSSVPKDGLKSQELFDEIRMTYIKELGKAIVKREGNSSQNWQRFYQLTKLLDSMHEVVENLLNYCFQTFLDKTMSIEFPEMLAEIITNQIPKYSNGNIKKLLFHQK

PPARδ [6] = target: T2, PPARδ; experiment: cell-based; parameters: species or system HEK 293T; GeneBLAzer GAL4-LBD beta-lactamase reporter, agonist mode, 460/530 nm FRET ratio; conditions: agonist mode; read-out: Control Titration EC50/IC50 (µM), agonist mode
Text: as §1

SMILES: CCCc1c(-c2ccc(O)cc2)nn(-c2ccc(O)cc2)c1-c1ccc(O)cc1 [1,3,5-tris(4-Hydroxyphenyl)-4-propyl-1H-pyrazole]
EC50 (ERα): 0.1 µM

SMILES: CCCCCCCCCCCCCCC(Br)C(=O)O (centres unmarked) [2-Bromohexadecanoic acid]
EC50 (PPARδ [1]): 28.2 µM

SMILES: CC(C)(c1ccc(OCC2CO2)cc1)c1ccc(OCC2CO2)cc1 (centres unmarked) [BADGE]
IC50 (PPARγ [2]; antagonist mode, nonsaturating agonist pre-added, […]-18 h at […] °C): 50.1 µM

SMILES: CC(C)CCC[C@@H](C)[C@H]1CC[C@H]2[C@@H]3CC=C4C[C@@H](O)CC[C@]4(C)[C@H]3CC[C@]12C [Cholesterol]
EC50 (LXRβ): 39.81 µM

SMILES: CC(C)c1ccc2c(c1)c(SC(C)(C)C)c(CC(C)(C)C(=O)O)n2Cc1ccc(Cl)cc1 [MK886]
IC50 (PPARδ [5]): 54 µM

SMILES: C[C@]12C=CC(=O)C=C1CC[C@H]1[C@@H]3C[C@@H](O)[C@](O)(C(=O)CO)[C@@]3(C)C[C@H](O)[C@@]12F [Triamcinolone]
EC50 (GR): 0.11 µM

SMILES: CCCc1c(OCCCOc2ccc(OCC(=O)O)cc2)ccc(C(C)=O)c1O [l-165,041]
EC50 (PPARδ [6]): 0.036 ± 0.006 µM | EC50 (PPARδ [1]): 0.09 µM

Other lines, results leading:

EC50 (RXRα): 0.62 µM
SMILES: CC1(C)CCC(C)(C)c2cc(C(=O)Nc3ccc(C(=O)O)cc3)ccc21 [AM-580]

EC50 (PPARγ [3]): 11.2 µM
SMILES: CC(C)C[C@H](NC(=O)OCC1c2ccccc2-c2ccccc21)C(=O)O [Fmoc-l-leucine]

IC50 (PPARγ [4]): 0.011 µM | IC50 (PPARγ [2]): 12.6 µM
SMILES: O=C(Nc1ccccc1)c1cc([N+](=O)[O-])ccc1Cl [GW9662]

EC50 (LXRβ): 0.25 µM
SMILES: O=S(=O)(c1ccccc1)N(CC(F)(F)F)c1ccc(C(O)(C(F)(F)F)C(F)(F)F)cc1 [TO-901317]

EC50 (RXRα): 0.71 µM
SMILES: C/C(=C\c1ccc(C(=O)O)cc1)c1ccc2c(c1)C(C)(C)CCC2(C)C [TTNPB, (E)-4-[2-(5,6,7,8-tetrahydro-5,5,8,8-tetramethyl-2-naphthylenyl)-1-propenyl] benzoic acid]
